The source of these data is patent US20040023806A1 (priority 1999, published 2004).

Broadly, the melting point is the temperature, or range, at which the solid turns liquid.

Series [1] has as its system Phytophthora infestans. It counts as in vivo. The conditions noted are these: tomato plants sprayed with 0.02% active substance, infected 24 hours later, assessed 5 days after infection.
Series [2] concerns Venturia inaequalis. Description: Residual protective activity against Venturia inaequalis in apples. It counts as in vivo. The settings on record: apple seedlings sprayed with 0.02% active substance, infected 24 hours later, assessed 12 days after infection. The protocol:
Apple seedlings with fresh shoots 10 to 20 cm long are sprayed to runoff with an aqueous spray liquor (0.02% active substance) prepared from a wettable powder of the active substance and 24 hours later are infected with a conidia suspension of the fungus. The plants are incubated at from 90 to 100 percent relative atmospheric humidity for 5 days and placed in a greenhouse at from 20 to 24° C. for […]. Fungal infestation is assessed 12 days after infection.

For series [3], the system named is Aphis craccivora. Nature of the series: Activity against Aphis craccivora. It counts as in vivo. The conditions noted are these: pea seedlings, spray liquor 100 ppm active substance, 20° C., 3 and 6 days later. The protocol:
Pea seedlings are infected with Aphis craccivora and sprayed with a spray liquor containing 100 ppm active substance and incubated at 20° C. 3 and 6 days later, the percentage reduction in the population (% activity) is determined by comparing the number of dead aphids on the treated and untreated plants.

Series [4] concerns Cercospora arachidicola. Nature of the series: Residual protective activity against Cercospora arachidicola in peanuts. It counts as in vivo. The settings on record: peanut plants sprayed with 0.02% active substance, infected 48 hours later, evaluated 12 days after infection (number and size of leaf spots). The protocol: Peanut plants 10 to 15 cm high are sprayed to runoff with an aqueous spray liquor (0.02% active substance) prepared from a wettable powder of the active substance and 48 hours later are infected with a conidia suspension of the fungus. The plants are incubated at 21° C. and high atmospheric humidity for 72 hours and then placed in a greenhouse until the typical leaf spots appear. The activity of the active substance is evaluated 12 days after infection, on the basis of the number and size of leaf spots.

`CO/N=C(/C(C)=N/OCc1ccccc1NC(=O)OC)c1ccc(F)cc1` gave a melting point of 143 to 144 °C. Regarding `CCO/N=C(/C(C)=N/N=C/c1ccccc1N(C)C(=O)OC)c1ccc(Oc2ccc(C(F)(F)F)cc2)cc1` [Compound 1 from table a, Methyl N-methyl-[2-({2-ethoxyimino-1-methyl-2-[4-(4-trifluoromethylphenoxy)phenyl]ethylidene}hydrazonomethyl)phenyl]carbamate], the activity entry in series [1] and in series [2] was “more than 80%” throughout.

In turn, `CO/N=C(C)/C(C)=N/OCc1ccccc1NC(=O)OC` [Compound 1 from table b, Methyl [2-(2-(E)-methoxyimino-1-methyl-(E)-propylideneaminooxymethyl)phenyl]carbamate] registered a melting point of 96.5 to 97.5 °C. In the case of `CCON=C(C(C)=NN=Cc1ccccc1N(COC)C(=O)OC)c1ccc(Oc2ccc(C(F)(F)F)cc2)cc1` [Compound 5 from table a, methyl N-methoxymethyl-[2-({2-ethoxyimino-1-methyl-2-[4-(4-trifluoromethylphenoxy)phenyl]ethylidene}hydrazonomethyl)phenyl]carbamate], in series [3], the “kill rate (% activity, reduction in population)” value is reported as “more than 80%”. Molecule `CCN(C(=O)OC)c1ccccc1CO/N=C(C)/C(C)=N/OC` [Compound 7 from table b, Methyl N-ethyl-[2-(2-(E)-methoxyimino-1-methyl-(E)-propylideneaminooxymethyl)phenyl]carbamate] came in with a melting point of 101 to 102 °C. Moreover, the activity result in series [4] is on record as “more than 80%”.
